This experiment deals with thrombin (Homo sapiens, UniProt P00734). Nature of the experiment: Effect of test compounds on thrombin activity: hydrolysis rate of chromogenic (Chromozim TH) or fluorogenic (BOC-Ala-Pro-Arg-AMC) substrate. In kind it is biochemical. Particulars: for inhibition at 0.1 µM: concentration of compound 100 nM; for inhibition at 0.2 µM: concentration of compound 200 nM; for inhibition at 0.02 µM: concentration of compound 20 nM; for inhibition at 0.04 µM: concentration of compound 40 nM; for inhibition at 0.0025 µM: concentration of compound 2.5 nM; for inhibition at 0.005 µM: concentration of compound 5 nM; for inhibition at 0.0125 µM: concentration of compound 12.5 nM; for inhibition at 0.025 µM: concentration of compound 25 nM; for inhibition at 0.05 µM: concentration of compound 50 nM; for inhibition at 0.125 µM: concentration of compound 125 nM; for inhibition at 0.25 µM: concentration of compound 250 nM; for inhibition at 0.01 µM: concentration of compound 10 nM. An excerpt: The effect of the synthesized substances on thrombin activity was studied by measuring the hydrolysis rate of specific low molecular weight substrates with thrombin in an aqueous buffering solution in the absence and presence of these compounds. One of these substrates was chromogenic substrate Chromozim TH (CTH): N-(p-Tosyl)-Gly-Pro-Arg-pNA [Sonder S A, Fenton J W 2nd. Thrombin Specificity with Tripeptide Chromogenic Substrates: Comparison of Human and Bovine Thrombins with and without Fibrinogen Clotting Activities. Clin. Chem., 1986, 32(6):934-937]. Another substrate that was used in a number of experiments was fluorogenic substrate BOC-Ala-Pro-Arg-AMC (S), wherein BOC is butoxycarbonyl residue, and AMC is 7-amino-4-methylcoumaryl [Kawabata S, Miura T, Morita T, Kato H, Fujikawa K, Ivanaga S, Takada K, Kimura T, Sakakibara S. Highly Sensitive peptide-4-methylcoumaryl-7-amide Substrates for Blood-Clotting Proteases and Trypsin. Eur. J. Biochem., 1988, 172(1):17-25].
The holes of a common 96-hole board were filled with a buffer containing 140 mM of NaCl, 20 mM of HEPES, and 0.1% polyethylene glycol (Mw=6,000), at pH=8.0. […] When a chromogenic substrate was used, accumulation of the colored reaction product—para-nitroaniline—was followed on a spectrophotometric Molecular Devices board reader (Thermomax, U.S.), measuring the increase in optical density on the 405 nm wavelength. […] The reaction kinetics was registered on a fluorometric Titertek Fluoroskan board reader (LabSystem, Finland).
The initial reaction rate was measured as the tangent of the kinetic curve inclination angle on a straight section (first 10 to 15 minutes of registration). Reaction rate without an inhibitor was a ssumed to be 100%. The mean arithmetic value of two independent measurements was used as the end result.

The mark [1] stands for this setting: concentration of compound 0.5 mcM.
[2] abbreviates: concentration of compound 2 mcM.
Where [3] appears, read: concentration of compound 5 mcM.
[4] abbreviates: concentration of compound 20 mcM.
[5] abbreviates: concentration of compound 50 mcM.
Where [6] appears, read: concentration of compound 100 mcM.
[7] abbreviates: concentration of compound 1 mcM.
The mark [8] stands for this setting: concentration of compound 10 mcM.
Setting [9] is: concentration of compound 2.5 mcM.
[10] abbreviates: concentration of compound 25 mcM.
[11] abbreviates: concentration of compound 250 mcM.
The mark [12] stands for this setting: concentration of compound 500 mcM.
Where [13] appears, read: concentration of compound 0.25 mcM.

As a reminder, the inhibition is the change of the read-out against control, counted positive when it falls. Read a high inhibition as a response far below the control. The compound `Cc1cc(OCCCn2ccsc2=N)cc(OS(=O)(=O)c2ccccc2)c1` showed an inhibition at 0.1 µM of 5% and an inhibition at 0.2 µM of 10%. Further, the “Hydrolysis rate inhibition, %” value under setting [1] was determined as 23%. Besides, the “Hydrolysis rate inhibition, %” value under setting [2] was found to be 57%. Further, the “Hydrolysis rate inhibition, %” value under setting [3] was found to be 73%. In addition, the “Hydrolysis rate inhibition, %” value under setting [4] was 95%. Moreover, under setting [5], the “Hydrolysis rate inhibition, %” value came to 95%. Under setting [6], the “Hydrolysis rate inhibition, %” value is listed as 96%. Further, the “Hydrolysis rate inhibition, %” value (concentration of compound 200 mcM) was determined as 97%.
For the setting “concentration of compound 0.25 mM”, `Cc1cc(OCCC[n+]2ccc(N)cc2)cc(OS(=O)(=O)c2ccccc2)c1` [HC-016s-IOC, 4-amino-1-(3-(3-methyl-5-(benzenesulfonyloxy)phenoxy)propyl)-pyridinium iodide] displayed an inhibition at 250 µM of 84%. Where the note is “concentration of compound 0.5 mM”, this compound displayed an inhibition at 500 µM of 100%.
For `Cc1cc(OCCCSC(=N)N)cc(OS(=O)(=O)c2ccccc2)c1.I` [HC-018s-IOC, 3-(3-methyl-5-(benzenesulfonyloxy)phenoxy)propyl-isothiouronium iodide], at 0.02 µM the inhibition was 16%, the inhibition at 0.04 µM is 33%, the inhibition at 0.1 µM came to 49% and the inhibition at 0.2 µM came out at 64%. Moreover, the “Hydrolysis rate inhibition, %” value under setting [1] was found to be 93%. Moreover, under setting [7], the “Hydrolysis rate inhibition, %” value worked out at 98%. Further, the “Hydrolysis rate inhibition, %” value under setting [2] is 100%. The “Hydrolysis rate inhibition, %” value under setting [3] is listed as 100%. For the same compound, the “Hydrolysis rate inhibition, %” value under setting [8] is 100%. The “Hydrolysis rate inhibition, %” value under setting [4] stood at 100%. Besides, the “Hydrolysis rate inhibition, %” value under setting [5] was determined as 100%. Also, under setting [6], the “Hydrolysis rate inhibition, %” value stood at 100%.
As to `Cc1cc(OCC[n+]2ccc(N)cc2)cc(OS(=O)(=O)c2ccccc2)c1` [HC-019s-IOC, 4-amino-1-(2-(3-methyl-5-(benzene Sulfonyloxy)phenoxy)ethyl)-pyridinium iodide], the inhibition at 0.0025 µM amounted to 55%, the inhibition at 0.005 µM came to 88%, the inhibition at 0.0125 µM came to 90% and 0.025 µM produced 88% inhibition. The same compound came in with an inhibition at 0.05 µM of 95% and an inhibition at 0.125 µM of 94%.
`Cc1cc(OCCSC(=N)N)cc(OS(=O)(=O)c2ccccc2)c1.I` [HC-020s-IOC, 2-(3-methyl-5-(benzenesulfonyloxy)phenoxy)ethyl-isothioronium iodide] showed an inhibition at 0.005 µM of 54%, an inhibition at 0.0125 µM of 46%, an inhibition at 0.025 µM of 59% and an inhibition at 0.05 µM of 68%. The same compound returned an inhibition at 0.125 µM of 81% and an inhibition at 0.25 µM of 94%. For the setting “concentration of compound 500 nM”, this compound registered an inhibition at 0.5 µM of 96%. Further, under “concentration of compound 1.25 mcM”, the “Hydrolysis rate inhibition, %” value is reported as 98%. Also, under setting [9], the “Hydrolysis rate inhibition, %” value was determined as 99%. Moreover, the “Hydrolysis rate inhibition, %” value under setting [3] was 99%.
For the compound `CN(C)c1cc[n+](CCc2nc3cc(S(=O)(=O)N(C)c4ccccc4)ccc3n2C)cc1.[Cl-]` [HC-021s-IOC], the “Hydrolysis rate inhibition, %” value is given as 5% under setting [10], 8% under setting [6], 4% under setting [11] and 4% under setting [12].
Take `CNc1ccc(S(=O)(=O)N(C)c2ccccc2)cc1NC(=O)CC[n+]1ccc(N(C)C)cc1.[Cl-]` [HC-022s-IOC]: the “Hydrolysis rate inhibition, %” value reads like this: under setting [13], 21%; under setting [1], 18%; under setting [3], 27%; under setting [10], 34%; under setting [5], 40%; (concentration of compound 130 mcM) 36%. The “Hydrolysis rate inhibition, %” value under setting [11] is recorded as 51%.
Turning to `Cc1cc(OCCC[n+]2ccc(N)cc2)cc(OS(=O)(=O)c2ccccc2Cl)c1` [HC-023s-IOC, 4-AMINO-1-(3-(3-METHYL-5-(2-CHLOROBENZENE SULFONYLOXY)PHENOXY)PROPYL)-PYRIDINIUM IODIDE], the “Hydrolysis rate inhibition, %” value (concentration of compound 0.7 mcM) is 13%; the “Hydrolysis rate inhibition, %” value (concentration of compound 1.4 mcM) worked out at 34%; the “Hydrolysis rate inhibition, %” value (concentration of compound 3.4 mcM) is given as 50%; the “Hydrolysis rate inhibition, %” value (concentration of compound 34 mcM) was 86%; the “Hydrolysis rate inhibition, %” value (concentration of compound 68 mcM) is 99%; the “Hydrolysis rate inhibition, %” value under setting [11] is 100%.
Compound `Cc1cc(OCC[n+]2ccc(N)cc2)cc(OS(=O)(=O)c2ccccc2Cl)c1` [HC-025s-IOC, 4-amino-1-(2-(3-methyl-5-(2-chlorobenzenesulfonyloxy)phenoxy)ethyl)-pyridinium iodide] showed an inhibition at 0.0025 µM of 52%, an inhibition at 0.0125 µM of 81%, an inhibition at 0.05 µM of 96% and an inhibition at 0.125 µM of 98%. The same compound displayed an inhibition at 0.00125 µM (concentration of compound 1.25 nM) of 69%. For the setting “concentration of compound 6.3 nM”, this compound yielded an inhibition at 0.0063 µM of 70%.
Compound `Cc1cc(OCCCSC(=N)N)cc(OS(=O)(=O)c2ccccc2Cl)c1` [HC-026s-IOC, 3-(3-methyl-5-(2-chlorobenzenesulfonyloxy)phenoxy)propyl-isothiouronium iodide] returned an inhibition at 0.005 µM of 47%, an inhibition at 0.0125 µM of 40%, an inhibition at 0.025 µM of 64% and an inhibition at 0.125 µM of 68%.
`CN(c1ccccc1)S(=O)(=O)c1ccc2c(c1)nc(CC[n+]1ccc(N)cc1)n2C.[Cl-]` [HC_027s_IOC]: the “Hydrolysis rate inhibition, %” value is on record as 11% under setting [13]; 6% under setting [1]; 24% under setting [9]; 24% under setting [3]; 59% under setting [8]; 72% under setting [10]. For the same compound, the “Hydrolysis rate inhibition, %” value worked out at 88% under setting [5], 100% under setting [6], 100% under setting [11] and 100% under setting [12].
Regarding `CNc1ccc(S(=O)(=O)N(C)c2ccccc2)cc1NC(=O)CC[n+]1ccc(N)cc1.[Cl-]` [HC_028s_IOC], the “Hydrolysis rate inhibition, %” value is listed as 15% (concentration of compound 0.1 mcM); 34% under setting [13]; 46% under setting [1]; 44% under setting [7]; 63% under setting [9]; 78% under setting [3]. For the same compound, the “Hydrolysis rate inhibition, %” value runs as follows: under setting [10], 95%; under setting [5], 95%; under setting [11], 100%; under setting [12], 100%.
Compound `Cc1cc(OCCC[n+]2ccc(N)cc2)cc(OS(=O)(=O)c2ccccc2F)c1.[I-]` [HC_029s_IOC] yielded an inhibition at 0.05 µM of 8%, an inhibition at 0.1 µM of 14% and an inhibition at 0.25 µM of 16%. The “Hydrolysis rate inhibition, %” value under setting [1] worked out at 25%. Under setting [7], the “Hydrolysis rate inhibition, %” value turned out to be 54%. In addition, the “Hydrolysis rate inhibition, %” value under setting [9] came out at 75%. Also, the “Hydrolysis rate inhibition, %” value under setting [3] turned out to be 81%.
Turning to `Cc1cc(OCCC[n+]2ccsc2N)cc(OS(=O)(=O)c2ccccc2F)c1.[I-]` [HC_030s_IOC], testing at 0.02 µM gave an inhibition of 5% and testing at 0.05 µM gave an inhibition of 18%. The “Hydrolysis rate inhibition, %” value under setting [2] was found to be 72%. Further, under setting [3], the “Hydrolysis rate inhibition, %” value was 88%. For the same compound, the “Hydrolysis rate inhibition, %” value under setting [8] worked out at 93%.
With `Cc1cc(OCCCSC(=N)N)cc(OS(=O)(=O)c2ccccc2F)c1.I` [HC_031s_IOC], 0.005 µM produced 35% inhibition, 0.01 µM produced 43% inhibition, the inhibition at 0.02 µM is 49% and testing at 0.05 µM gave an inhibition of 59%. Also, the inhibition at 0.1 µM was found to be 73%. In addition, under setting [2], the “Hydrolysis rate inhibition, %” value was 99%. For the same compound, the “Hydrolysis rate inhibition, %” value under setting [3] was found to be 100%.
Take `C/N=C(/N)SCCCOc1cc(C)cc(OS(=O)(=O)c2ccccc2Cl)c1.I` [HC_032s_IOC]: the inhibition at 0.05 µM is 10% and the inhibition at 0.1 µM stood at 17%. For the same compound, the “Hydrolysis rate inhibition, %” value under setting [3] was 48%. For the same compound, the “Hydrolysis rate inhibition, %” value under setting [8] is listed as 71%.
Compound `C/N=C(/N)SCCOc1cc(C)cc(OS(=O)(=O)c2ccccc2Cl)c1.I` [HC_033s_IOC] displayed an inhibition at 0.01 µM of 23%, an inhibition at 0.02 µM of 24%, an inhibition at 0.04 µM of 62% and an inhibition at 0.1 µM of 59%. Besides, 0.2 µM produced 74% inhibition. Besides, the inhibition at 0.004 µM (concentration of compound 4 nM) worked out at 18%. Also, the “Hydrolysis rate inhibition, %” value (concentration of compound 4 mcM) turned out to be 100%.
